How the values were obtained:
ACCase of S-2 tissue = ACCase of S-2 tissue (Zea mays, UniProt Q41743); experiment: ACCase activity, herbicide inhibition, S-2 tissue; format: biochemical, maize; settings: on concentration basis
Description: (§1) Maize chloroplasts, isolated as described above, were suspended in buffer C (0.1 M Tricine-KOH, pH 8.0; 0.3 M glycerol, and 1 mM DTT) and homogenized in a glass tissue homogenizer. The disrupted chloroplast fraction was centrifuged at 16,000 g for 15 minutes. The supernatant was desalted on a Sephadex G-25 column (1.5×5 cm equilibrated with 0.1 M Tricine-KOH, pH 8.0; and 0.3 M glycerol) and assayed directly. ACCase activity (B. J. Nikolau et al., Arch. Biochem. Biophys., 211, 605-612 (1981)) was assayed at 30° C. in a 0.2 ml volume which contained 1 mM ATP, 3 mM acetyl coenzyme A, 2.5 mM MgCl2, 50 mM KCl, 0.5 mM DTT, and 15 mM [^14C]NaHCO3 (0.17 mCi/mmol). Reactions were initiated by addition of acetyl coenzyme A and stopped by addition of 25 μl of 12 N HCl. Product formation was determined by the radioactivity found in an acid stable fraction by liquid scintillation spectrometry. Enzyme activity was linear for 15 minutes.
Assays were conducted to determine if ACCase extracted from cell line S-2 was altered with respect to herbicide activity. ACCase activity of control tissue was 50% inhibited either by 1.5 μM sethoxydim, or by 0.25 μM haloxyfop. ACCase activity of S-2 tissue was inhibited 50% either by 70 μM sethoxydim, or by 1.8 μM haloxyfop, indicating at least 40-fold and 7-fold decreases in herbicide sensitivity on concentration basis, respectively.

[1] = test system: ACCase of cell line 2167-9/2160-154 S-1; experiment: Herbicide inhibition of ACCase, line S-1; format: biochemical, maize; settings: cell line S-1
Description: as §1
Acetyl Coenzyme A Carboxylase (ACCase) was extracted from cell lines S-1, H-1 and H-2 and assayed as described in detail for maize cell line S-2, above.

[2] = test system: Heterozygous tolerant Inbred × H1 seedlings; experiment: Foliar herbicide application, lethal rate; format: in vivo, maize (Zea mays L.); settings: Heterozygous tolerant Inbred × H1, average of A188- and A619-derived F1 families
Description: (§2) Foliar applications of the herbicides were made to greenhouse- or field-grown seedlings at the three- to five-leaf stage. Herbicides were applied in a spray volume of 187 l/ha that includes 2.3 l/ha crop oil concentrate to enhance uptake. Sethoxydim and haloxyfop were applied using commercial formulations (Poast from BASF Corp and Verdict from Dow Elanco, respectively). Visual observations were recorded 14-21 days after herbicide treatments.
(§3) For each mutant, two homozygous tolerant R4 families were derived from two different regenerated plants and two heterozygous F1 families were obtained from crosses of R3 homozygous tolerant lines with the susceptible inbreds A188 and A619. Sethoxydim and haloxyfop each were applied at rates ranging from 0.0034 to 7.0 kg/ha. For each genotype a five-rate doubling series was used to determine herbicide lethality. Because of the large differences between wildtype and mutants in herbicide susceptibility, the ranges of herbicide application rates were varied. Two five plant/pot replicates of each family were evaluated for each rate. Herbicide injury symptoms were scored visually 21 days after herbicide treatment. The lethal rate was considered to be the lowest application rate resulting in death of all seedlings in the four replications of each homozygous tolerant genotype or in the eight replications of the heterozygous combinations.

[3] = test system: Heterozygous tolerant Inbred × H2 seedlings; experiment: Foliar herbicide application, lethal rate; format: in vivo, maize (Zea mays L.); settings: Heterozygous tolerant Inbred × H2, average of A188- and A619-derived F1 families
Description: as §2, §3

[4] = test system: Heterozygous tolerant Inbred × S2 seedlings; experiment: Foliar herbicide application, lethal rate; format: in vivo, maize (Zea mays L.); settings: Heterozygous tolerant Inbred × S2, average of A188- and A619-derived F1 families
Description: as §2, §3

[5] = test system: Heterozygous tolerant Inbred × S3 seedlings; experiment: Foliar herbicide application, lethal rate; format: in vivo, maize (Zea mays L.); settings: Heterozygous tolerant Inbred × S3, average of A188- and A619-derived F1 families
Description: as §2, §3

[6] = test system: Homozygous tolerant H1 seedlings; experiment: Foliar herbicide application, lethal rate; format: in vivo, maize (Zea mays L.); settings: Homozygous tolerant H1, average of two families; scored 21 days after treatment
Description: as §2, §3

[7] = test system: Homozygous tolerant H2 seedlings; experiment: Foliar herbicide application, lethal rate; format: in vivo, maize (Zea mays L.); settings: for Fold increase in tolerance compared to the wildtype: H2 seedlings; for Lethal rates: Homozygous tolerant H2, average of two families, scored 21 days after treatment
Description: as §2, §3

[8] = test system: Homozygous tolerant S3 seedlings; experiment: Foliar herbicide application, lethal rate; format: in vivo, maize (Zea mays L.); settings: for Lethal rates: Homozygous tolerant S3, average of two families, scored 21 days after treatment
Description: as §2, §3

[9] = test system: Wildtype (A188 and A619) seedlings; experiment: Foliar herbicide application, lethal rate; format: in vivo, maize (Zea mays L.); settings: average response of A188 and A619, scored 21 days after treatment
Description: as §2, §3

[10] = test system: control (2167-9/2160-154 unselected) plants; experiment: Whole plant sethoxydim spray, greenhouse, control regenerated plants; format: in vivo, maize; settings: greenhouse-grown regenerated plants, sprayed
Source text: (§4) Groups of eight control (2167-9/2160-154 unselected) and eight S-2 plants were sprayed with either 0.0, 0.01, 0.05, 0.11, 0.22 or 0.44 kg/ha sethoxydim to determine whole plant sethoxydim-tolerance of greenhouse-grown plants. Control plants were killed by 0.05 kg/ha or more sethoxydim.

[11] = test system: plants regenerated from the S-2 cell line; experiment: Whole plant sethoxydim spray, greenhouse, S-2 regenerated plants; format: in vivo, maize
Source text: as §4

[12] = test system: progeny of 2167-9/2160-154 control plants; experiment: Sethoxydim treatment of progeny seedlings, greenhouse; format: in vivo, maize; settings: seedlings treated at 3-4 leaf stage, rated two weeks after treatment
Description: Seeds obtained by the crossing procedure described above were viable and germinated normally. Seeds from thirty S-2 selfed plants and fifteen 2167-9/2160-154 control plants were planted in 25×50 cm trays of soil (28 seeds from each plant in one tray) and grown in the greenhouse. Seedlings at the 3-4 leaf stage were treated with 0.1, 0.44, and 1.1 kg/ha sethoxydim and evaluated for visual herbicide damage and shoot height. Based on visual rating of herbicide damage two weeks after treatment, selfed progeny of S-2 plants segregated approximately 1:2:1 for healthy, uninjured plants: to plants showing partial injury: to dead plants, respectively, at 0.44 and 1.1 kg/ha sethoxydim treatments. All control progeny of 2167-9/2160-154 control plants were killed by 0.1 kg/ha and greater levels of sethoxydim. […] Similar tests were conducted on progeny of S-2 plants crossed to the other inbreds. In all cases, these test cross progeny treated with 0.44 kg/ha sethoxydim segregated 1:1 for growing shoots versus dead shoots whether S-2 plants were used as male or female parents. […] In all cases, control plants crossed to the other inbreds were killed and therefore sethoxydim-sensitive.

SMILES	Fold decrease in herbicide sensitivity of ACCase, S-2 versus control (ACCase of S-2 tissue)	Fold increase in herbicide concentration that inhibits ACCase activity by 50% vs unselected parent cell line [1]	Fold increase in herbicide concentration that inhibits ACCase activity by 50% vs unselected parent cell line ([1]; listed as haloxyfop)	Lethal rates [2]	Lethal rates [3]	Lethal rates [4]	Lethal rates [5]	Lethal rates [6]	Fold increase in tolerance compared to the wildtype [7]	Lethal rates [7]	Lethal rates [8]	Lethal rates [9]	Rate that killed control plants [10]	Survival of S-2 plants ([11]; 0.44 kg/ha sethoxydim)	Shoot height of regenerated S-2 plants ([11]; 14 days after treatment with 0.44 kg/ha sethoxydim)	Fold more tolerance of S-2 plants than control ([11]; whole plant spray)	Rate that killed all control progeny [12]	Fold increase in herbicide concentration that inhibits ACCase activity by 50% vs unselected parent cell line ([1]; listed as sethoxydim)	Fold increase over the lethal rate for wildtype plants ([8]; homozygous S3 seedlings, not killed at 7 kg/ha)
CC(Oc1ccc(Oc2ncc(C(F)(F)F)cc2Cl)cc1)C(=O)O (centres unmarked) [Haloxyfop, 2-[4-[[3-chloro-5-(trifluoromethyl)-2-pyridinyl]oxy]phenoxy]-propanoic acid]	≥ 7 fold	3 fold	more tolerant	0.11 kg/ha	0.11 kg/ha	0.11 kg/ha	0.11 kg/ha	0.11 kg/ha	about 16 fold	0.22 kg/ha	0.22 kg/ha	0.014 kg/ha							
CCCC(=NOCC)C1=C(O)CC(CC(C)SCC)CC1=O (centres unmarked) [Sethoxydim, 2-[1-(ethoxyimino)-butyl]-5-[2-(ethylthio)propyl]-3-hydroxy-2-cyclohexen-1-one]		4 fold		0.055 kg/ha	0.22 kg/ha	≧1.8 kg/ha	≧1.8 kg/ha	0.055 kg/ha	about 16 fold	0.88 kg/ha	>7.0 kg/ha	0.055 kg/ha	≥ 0.05 kg/ha	survived	only slightly reduced	at least 20 fold	≥ 0.1 kg/ha	more tolerant	≥ 127 fold
